From US20110243846A1, “BENZOTHIAZOLE AMIDES FOR DETECTION OF AMYLOID BETA” (priority 2008, published 2011)

Tested on: Aβ plaques in cortex sections of Alzheimer's disease patients
Test: Autoradiographical analysis of binding to human brain sections
Settings: F-18 labelled compound; for Autoradiographical analysis of binding to cryosections from cortex: cryosections from cortex of AD patients vs controls without Aβ plaques (HC/FTD)
Excerpt: Fresh frozen as well as paraffin embedded sections of the frontal lobe from Alzheimer's dementia patients, frontotemporal dementia patients and age matched controls were used for the study. Frozen sections, sliced at 18 μm thickness on a cryostate (Leica, Germany) and paraffin sections, sliced on a sliding microtom (Leica) at a thickness of 6 μm, were mounted onto glass slides (Superfrost Plus, Fa.Menzel, Braunschweig Germany). Frozen sections were allowed to adhere to the slides for several nights at −20° C. The paraffin sections were deparaffinized using routine histological methods. For binding studies sections were incubated with the F-18 labeled test compound at 10 Bq/μl diluted in 25 mM Hepes buffer, pH 7.4, 0.1% (BSA) (200-300 μl/slide) for 1.5 hour at room temperature in a humidified chamber. For blocking experiments a 1000-fold access of the unlabeled test substance was added to the incubation mixture. After hybridization, sections were washed four times with Hepes buffer, 0.1% BSA (or alternatively two times with 40% ethanol) and finally dipped two times into dest. water for 10 sec. The air-dried sections were exposed to imaging plates and signals were detected by a phosphoimager device (Fuji BAS5000).

Row | Compound | Autoradiographical analysis of binding to cryosections from cortex | Autoradiographical analysis of binding to paraffine-sections from cortex (paraffine-sections from cortex of AD patients vs controls without Aβ plaques (HC/FTD))
1 | COc1ccc2nc(NC(=O)c3ccc([18F])cc3)sc2c1 [compound 1f, 4-(^18F)fluoro-N-(6-methoxy-1,3-benzothiazol-2-yl)benzamide] | Specific binding in plaque-rich regions of AD samples | 
2 | COc1ccc2nc(NC(=O)c3cc([18F])ccn3)sc2c1 [compound 2c, 4-(^18F)fluoro-N-(6-methoxy-1,3-benzothiazol-2-yl)pyridine-2-carboxamide] | Specific binding in plaque-rich regions of AD samples | 
3 | COc1ccc2nc(NC(=O)c3cccc([18F])n3)sc2c1 [compound 3c, 6-[^18F]-fluoro-N-(6-methoxy-1,3-benzothiazol-2-yl)pyridine-2-carboxamide] |  | Specific binding in plaque-rich regions of AD samples
